From PMC11026403 (Communications Biology, 2024)

Target: A/Denmark/528/2009 (H1N1)pdm09 NA-H274Y (Influenza A virus, UniProt C3W5S3, H275Y)
Assay type: biochemical, Influenza A virus A/Denmark/528/2009 (H1N1)pdm09

Compound | NAI susceptibility classification (WHO guidance) | IC50 [nM]
CCC(CC)O[C@@H]1C=C(C(=O)O)C[C@H](N)[C@H]1NC(C)=O [oseltamivir, oseltamivir carboxylate] | highly reduced inhibition (key: <10-fold, normal inhibition; 10–100 fold, reduced inhibition; >100-fold, highly reduced inhibition) | –
CCC(CC)[C@H](NC(C)=O)[C@@H]1[C@H](O)[C@@H](C(=O)O)C[C@H]1N=C(N)N [peramivir] | highly reduced inhibition (key: <10-fold, normal inhibition; 10–100 fold, reduced inhibition; >100-fold, highly reduced inhibition) | 23.5
